Test system: PC12 cells stably transfected with RAGE and transiently transfected with mutant presenilin-2 (N141 mutant)
Assay: TUNEL apoptosis assay in transfected PC12 cells exposed to Aβ
Assay type: cell-based
Conditions: Aβ 0.3 and 1 μM, 24 hrs; cells co-transfected to express mutant presenilin-2 and RAGE
Method: Induction of apoptosis. For apoptosis studies, PC12 cultures, either mock-transfected (control), stably transfected with the RAGE-bearing construct or stably transfected with the RAGE-bearing construct and transiently transfected with the mutant presenilin-2 bearing construct, and were then exposed to Aβ (0.3 or 1 μM) for 24 hrs. At the end of this time, apoptosis was determined using the TUNEL assay by counting positively staining nuclei per twenty high-power fields. Under these conditions, mutant presenilin-2 by itself has little effect on apoptosis, as shown previously (FIG. 3).
Generation of Stable Transfected Cells. PC12 cells, grown as described and transfected with pcDNA3-RAGE (the latter comprised of the human RAGE cDNA) (Yan, et al., 1996) using lipofectamine (12 μg/ml) according to the manufacturer's instructions (Gibco-BRL). Cells were maintained in the presence of G418. Transient transfection was performed with a vector including mutant presenilin-2 (N141 mutant) (Wolozin et al., 1996), using lipofectamine, as described (Wolozin et al., 1996). Immunoblotting and immunostaining of PC12 cells for RAGE was performed as described previously (Yan, et al., 1996).
Apoptosis assay. The terminal deoxynucleotidyl transferase-mediated dUTP nick end labeling (TUNEL) assay was performed as described using a kit from Travigen, a peroxide-based TACS-TdTkit (Woolozin, et al., 1996). […]

Aβ: Aβ (comprised of residues 1-42), synthesized, HPLC purified, purchased from a commercial supplier
apoptosis (TUNEL, positively staining nuclei per twenty high-power fields): dramatic increase in apoptosis

Source: US20030037344A1, “METHOD FOR EVALUATING THE ABILITY OF A COMPOUND TO INHIBIT NEUROTOXICITY” (priority 1997, published 2003)
